According to patent US20240165196A1, “Beta-Lactamase Inhibitors” (VIB VZW, priority 2021, published 2024):

How the values were obtained:
[1] = peptide solubility and self-aggregation (DLS, Thioflavin T, electron microscopy, pFTAA)
From the text: Three replicates are shown for each condition. […] A single representative image is shown. […] Three replicates are shown for each condition. […] A single representative image is shown. […] A single representative image is shown. […] A single representative image is shown.
A DynaPro DLS plate reader instrument (Wyatt, Santa Barbara, CA, USA) equipped with an 830 nm laser source was used to determine the hydrodynamic radius (RH) of the peptide particles. Two hundred microliters of each sample (at 100 or 10 μM, unless stated otherwise) were placed into a flat-bottom 96-well microclear plate (Greiner, Frickenhausen, Germany). The autocorrelation of scattered light intensity at a 32° angle was recorded for 5 s and averaged over 20 recordings to obtain a single data point. The Wyatt Dynamics v7.1 software was used to calculate the hydrodynamic radius by assuming […] particles. The amyloid-specific dye Thioflavin-T (Th-T, Sigma-Aldrich, CAS number 2390-54-7) was used to study the aggregation state of peptides.

[2] = system: E. coli strain lacking TEM (ATCC 25922); test: Structured Illumination Microscopy of peptide-treated bacteria lacking TEM; assay type: cell-based; settings: same treatment as UZ_TEM104
Experimental: (§1) FIGS. 3A-3P. […] Three replicates are shown for each condition. […] A single representative image is shown. […] Three replicates are shown for each condition. (FIG. 3E) [Left] […] [Middle] […] [Right] […] A single representative image is shown. […] A single representative image is shown. […] A single representative image is shown. […] A single representative blot is shown. […] 106 cells were analysed for the plot.
(§2) Moreover, we confirmed the presence of the protein in the correct band using mass spectrometry proteomics. We repeated this with a strain expressing SHV-154, blotting with a polyclonal rabbit antibody raised against the recombinant SHV enzyme described above (FIG. 3K).
The bacterial cultures were washed with PBS and the number of the bacteria were adjusted to 10^8-10^9 cells/mL. […] Then, cells were treated with LCO dyes (pFTAA; Amytacker™ 680 or Amytacker™ 545: final concentration of 0.5 μM; Ebba Biotech, Sweden) for at least 90 min. The absorption, emission and excitation spectra for each dye were measured based on the standard Ebbabiotec advice (ebbabiotech.com).
Bacteria were fixed by adding 2.5% paraformaldehyde and 0.04% glutaraldehyde (final concentrations) to the culture media, followed by incubation at room temperature for 15 mins and 30 mins on ice. Bacteria were then washed in PBS and resuspended in GTE buffer (50 mM glucose, 25 mM Tris, and 10 mM EDTA, pH 8.0). […]

[3] = system: E. coli K12 MG1655 overexpressing GFP; test: Structured Illumination Microscopy of bacterial strains stably expressing GFP or FP fusions; assay type: cell-based; settings: strains expressing GFP or proteins fused to FPs, treated with TEM3.2
Experimental: as §1, §2
Bacteria were fixed by adding 2.5% paraformaldehyde and 0.04% glutaraldehyde (final concentrations) to the culture media, followed by incubation at room temperature for 15 mins and 30 mins on ice. Bacteria were then washed in PBS and resuspended in GTE buffer (50 mM glucose, 25 mM Tris, and 10 mM EDTA, pH 8.0). Directly preceding microscopic analysis, cells were transferred to a glass slide and covered with a coverslip. Imaging was performed using a Zeiss Elyra S.1 system in the LiMoNe Light microscopy facility of VIB-KU Leuven.

[4] = system: HEK293; assay type: cell-based, human
[5] = system: HeLa; assay type: cell-based, human
From the text: FIGS. 4A-4K. […] IV—Intravenous, IP—Intraperitoneal, SC—Subcutaneously. The data shown is from a single experiment with 4 animals per group. […] (ns—non significant, #—P>0.05, *—P≤0.05, ***—P≤0.01, ****—P≤0.001). (FIG. 4G) FICI plot as in FIG. 2, for the E. coli strains indicated and the combination of penicillin and the TEM3.2 peptide. […] (FIG. 4J) Same as FIG. 4H for peptide BGAL. (FIG. 4K) Same as FIG. 4H for peptide P33.
Given this broad activity on clinical isolates, we wondered if the TEM3.2 peptide could be used to re-sensitize bacteria to ampicillin treatment in vivo, in a mouse Urinary Tract Infection (UTI) model.

[6] = system: SH-SY5Y; assay type: cell-based, human
[7] = system: primary mouse cortical neurons; assay type: cell-based
[8] = mouse, in vivo, iv, 5 mg/kg
Experimental: Vehicle alone (0.9% NaCl) was also administered (IV).

[9] = system: E. coli strain UZ_TEM104; assay type: cell-based; settings: peptide alone
From the text: In order to generate a synthetic amyloid peptide capable of inactivating the TEM-1 beta-lactamase enzyme by capitalizing on its aggregation propensity, we applied a previously developed design pattern for synthetic aggregating sequences. This involves a tandem repeat of the APR, each instance flanked by charged amino acids for solubility and separated by a short peptide linker^19,20,23 (FIG. 2G). Previous work has shown that good bacterial uptake can be achieved using one positively charged arginine residue on the N-terminal side of each APR in the tandem and two arginine residues on the C-terminal side. This has the additional benefit of reducing the self-aggregation of the peptides and increasing their solubility prior to target engagement. As before, we employed a single Pro residue as a linker between the APRs and focused on an APR length of seven, extending shorter APRs to this length by incorporating flanking amino acids unless they were obvious aggregation breakers (Arg, Lys, Asp, Glu or Pro, see Table 1). We obtained these peptides from solid phase synthesis, followed by HPLC purification to a purity judged by reverse phase chromatography of at least 90% (Genscript).
Determination of MIC values using the broth microdilution in the 96-well plate (BD Biosciences, Belgium) according to the EUCAST guideline, which was performed in 96-well polystyrene flat bottom microtiter plates (BD Biosciences). Briefly, a single colony was inoculated into 5 mL Difco™ Mueller Hinton Broth (BD Biosciences Ref 275730) and grown to the end-exponential growth phase in a shaking incubator at 37° C. Cultures were subsequently diluted to an MacFarland (0.5 optical density) then the culture was diluted to reach 10^6 CFU/mL in fresh MHB medium. 50 μl of different concentration of peptides ranging from 128 to 2 μg/mL were serially diluted to the sterile 96-well plate in MHB. 50 μL of the diluted bacteria in MHB were pipetted into 96-well plates to reach the final volume of 100 μL. The bacteria grown with the maximum concentration of carrier and medium were considered as positive and negative controls, respectively. The plates were statically incubated overnight at 37° C. to allow bacterial growth. OD was measured at 590 nm a multipurpose ultraviolet-visible plate reader, and the absorbance of the growth bacteria was measured using absorbance reader. Bacterial growth was also visually inspected and agreed well with the OD reading.

| Substance | solubility by Dynamic Light Scattering ([1]; 50 μM peptide in buffer alone (50 mM Tris pH 8.5, 300 mM NaCl)) | aggregation of the peptide in presence of polyphosphate (ThT binding, electron microscopy) ([1]; 50 μM peptide, buffer with polyP) | inclusion body formation [2] | induced aggregation of fluorescent proteins [3] | cytotoxicity (Cell Titer Blue) [4] | cytotoxicity (Cell Titer Blue) [5] | cytotoxicity (Cell Titer Blue) [6] | cytotoxicity (Cell Titer Blue) [7] | hematologic analysis [8] | MIC peptide [9] [µg/mL] |
| --- | --- | --- | --- | --- | --- | --- | --- | --- | --- | --- |
| Ac-RLTAFLHNRRPRLTAFLRQRR-NH2 [TEM3.2] | soluble in vitro | amyloid-like aggregation | only very limited inclusion body formation | did not observe any induced aggregation | not cytotoxic | not cytotoxic | not cytotoxic | not cytotoxic | no major discrepancies to vehicle treated controls |  |
| Ac-RLTAFLHNRRPRLTAFLHNRR-NH2 [TEM3.0] |  |  |  |  |  |  |  |  |  | >100 |
